Test results from patent US20240150301A1, “METHODS OF MODULATING ANDROGEN RECEPTOR CONDENSATES” (ETERN BIOPHARMA (SHANGHAI) CO., LTD., priority 2021, published 2024).
pIC50: −log10 of the molar value.

How the values were obtained:
[1] = target: T1, AR-mEGFP nuclear puncta in LNCaP cells (Homo sapiens, UniProt P10275); experiment: AR phase separation inhibition IC50 testing (nuclear puncta imaging); type: cell-based; details: for pIC50: LNCaP, compound 3 h before 20 nM DHT, 3 h DHT
T1 construct: expressed in transfected cells; host or cells: LNCaP
T1 sequence (P10275 1-920): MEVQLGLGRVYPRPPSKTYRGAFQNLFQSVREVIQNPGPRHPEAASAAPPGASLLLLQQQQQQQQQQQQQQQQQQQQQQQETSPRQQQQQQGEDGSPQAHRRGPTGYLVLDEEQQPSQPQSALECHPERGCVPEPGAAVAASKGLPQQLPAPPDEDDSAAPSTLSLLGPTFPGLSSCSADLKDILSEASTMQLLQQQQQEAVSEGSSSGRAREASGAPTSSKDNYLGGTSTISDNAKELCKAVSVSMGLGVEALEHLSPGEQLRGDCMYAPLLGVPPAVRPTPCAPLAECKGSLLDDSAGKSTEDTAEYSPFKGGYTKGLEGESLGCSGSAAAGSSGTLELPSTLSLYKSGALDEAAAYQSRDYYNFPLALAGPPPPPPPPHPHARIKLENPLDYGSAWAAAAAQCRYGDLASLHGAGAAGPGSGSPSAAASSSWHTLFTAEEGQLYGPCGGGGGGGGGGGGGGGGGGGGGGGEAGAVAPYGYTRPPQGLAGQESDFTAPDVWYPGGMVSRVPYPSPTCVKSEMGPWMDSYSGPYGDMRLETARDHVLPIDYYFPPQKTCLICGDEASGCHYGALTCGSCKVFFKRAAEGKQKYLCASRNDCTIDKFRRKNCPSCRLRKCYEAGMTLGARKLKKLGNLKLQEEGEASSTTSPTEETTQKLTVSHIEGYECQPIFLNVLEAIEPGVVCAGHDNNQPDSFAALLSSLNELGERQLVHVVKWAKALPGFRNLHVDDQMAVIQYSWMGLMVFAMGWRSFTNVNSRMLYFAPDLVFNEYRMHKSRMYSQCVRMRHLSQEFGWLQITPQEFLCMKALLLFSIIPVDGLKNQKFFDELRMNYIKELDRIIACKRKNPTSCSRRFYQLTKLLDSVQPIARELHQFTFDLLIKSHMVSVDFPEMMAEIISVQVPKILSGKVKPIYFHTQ
Protocol: Nuclear Puncta Imaging for Compounds IC50 Determination • LNCaP cells were cultured in a 10-cm dish. Cells were transfected with AR (AR or AR F877L/T878A)-mEGFP expression plasmids (pMSCV vector, 12 μg plasmid per 10-cm dish). 12 hours after transfection, medium were replaced with steroid hormone-free and phenol red-free RPMI1640 (starvation medium) and continued to starve for another 24 hours. Cells (80 μl, 20,000 per well) were seeded in a 96-well glass bottom plate (Cellvis, P96-1.5H-N) and cultured for another 24 hours. Then cells were incubated with 10× serial-diluted compounds […] for 3 hours before 20 nM DHT stimulation […]. After 3 hours DHT addition, cells were fixed with equal volume pre-warmed 8% PFA for 30 minutes and subsequently replaced with 100 μl PBS. Nuclear puncta images were acquired with Operetta CLS (Perkin Elmer) equipped with 60× water immersion lens (40 fields per well). The images were analyzed with Operetta built-in analysis modules. Nuclei were found from illumination corrected images with find nuclei module (type M) and filtered out low intensity nuclei. Subsequently puncta were first identified using find spot module (type A) and classified to high confident puncta and low confident puncta with PhenoLOGIC machine learning plug-in. For better representation, only high confident puncta were kept. The analyzed image puncta data were exported and statistics were processed with R/Bioconductor. The specific IC50 values were calculated by R/drc package (four-parameter log-logistic function).

[2] = system: AR or AR-V7 downstream target genes; experiment: AR/AR-V7 target gene qPCR assay in 22Rv1 cells; type: cell-based, human; details: 22Rv1, 48 h, RT-qPCR
Protocol: To evaluate the effect of exemplary compounds on mRNA expression of AR or AR-V7 downstream target genes, real-time quantitative PCR measurements were performed in prostate cancer cell line 22Rv1 expressing both AR and AR-V7.
22Rv1 cells were cultured in charcoal stripped FBS/phenol red-free RPMI medium for 24 h, and then treated with DMSO or test compounds for additional 48 h prior to RT-qPCR. Briefly, RNA was isolated from cells using RNeasy Mini Kit (Qiagen) following the manufacturer's protocol. RNA was reverse transcribed and subjected to qPCR using PowerUp™ SYBR™ Green Master Mix (Applied Biosystems). The relative quantity of the target genes was calculated using the ΔΔCt method by comparing Ct of the target genes and mean Ct of the housekeeping gene GAPDH.

| Compound | AR phase separation (FIG. 7) [1] | pIC50 [1] | mRNA expression of target genes of either AR or AR-V7 [2] |
| --- | --- | --- | --- |
| CC(C)(c1ccc(C#Cc2cnc(NS(C)(=O)=O)nc2)cc1)c1cc(Cl)c(OCCCl)c(C#N)c1 [Compound 60, N-(5-((4-(2-(3-chloro-4-(2-chloroethoxy)-5-cyanophenyl)propan-2-yl)phenyl)ethynyl)pyrimidin-2-yl)methanesulfonamide] | inhibited AR phase separation | 5.60 | – |
| CC(C)(c1ccc(OCc2ccnc(N=S3(=O)CCNCC3)n2)cc1)c1cc(Cl)c(OCCCl)c(C#N)c1 [Compound 6, 3-chloro-2-(2-chloroethoxy)-5-(2-(4-((2-((1-oxido-1λ^6-thiomorpholin-1-ylidene)amino)pyrimidin-4-yl)methoxy)phenyl)propan-2-yl)benzonitrile] | inhibited AR phase separation | 5.44 | inhibited mRNA expression |
| CC(C)(c1ccc(OCc2ccnc(NS(C)(=O)=O)n2)cc1)c1cc(Cl)c(OCCCl)c(C#N)c1 [Compound AA, N-(4-((4-(2-(3-chloro-4-(2-chloroethoxy)-5-cyanophenyl)propan-2-yl)phenoxy)methyl)pyrimidin-2-yl) methane sulfonamide, reference compound] | did not show inhibition | < 4.70 | inhibited mRNA expression |
